Measured values as given in article PMC12845078 (Pharmaceuticals, 2025).

Tests used:
[1] = tested on: CYP1A2-mediated metabolism of MT; details: cited from earlier work
[2] = molecular target: T1, CYP enzymes involved in melatonin 6-hydroxylation (Rattus norvegicus, UniProt P04799); assay: Competitive inhibition of CBD on MT 6-hydroxylation, rat liver microsomes; type: in vitro ADME; details: probe melatonin (MT) 1 μM, 6-hydroxylation to 6-HMT
T1 sequence (P04799 2-513): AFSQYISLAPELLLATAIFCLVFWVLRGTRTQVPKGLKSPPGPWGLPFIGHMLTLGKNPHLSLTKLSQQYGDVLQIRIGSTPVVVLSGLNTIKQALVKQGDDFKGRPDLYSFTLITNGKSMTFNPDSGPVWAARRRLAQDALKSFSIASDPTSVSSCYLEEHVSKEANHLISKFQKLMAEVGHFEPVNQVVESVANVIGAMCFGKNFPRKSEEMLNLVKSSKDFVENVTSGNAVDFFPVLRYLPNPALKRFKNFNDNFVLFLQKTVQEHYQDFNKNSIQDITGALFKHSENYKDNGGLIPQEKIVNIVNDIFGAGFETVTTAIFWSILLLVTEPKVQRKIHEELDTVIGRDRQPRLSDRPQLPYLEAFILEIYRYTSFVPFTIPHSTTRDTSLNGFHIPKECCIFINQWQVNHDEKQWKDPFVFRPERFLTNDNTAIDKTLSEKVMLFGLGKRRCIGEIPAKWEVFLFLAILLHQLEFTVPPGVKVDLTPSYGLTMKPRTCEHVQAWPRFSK
Protocol: The final incubation system contained 100 mM PBS, 5 mM MgCl2, 0.5 mg/mL liver microsomal protein, and 1 mM NADPH. […] The final concentration of MT was 1 μM.

[3] = tested on: CYP enzymes of MT 6-hydroxylation; assay: in vitro; details: beagle, dog, liver microsomes, probe melatonin (MT) 2 μM, 6-hydroxylation to 6-HMT, IC50 Ratio (IC50 shift), DLM, 30 min pre-incubation with/without NADPH
Protocol: The reaction was initiated by adding pre-warmed NADPH (control groups lacked NADPH). The final incubation mixture contained 100 mM PBS, 5 mM MgCl2, liver microsomes (0.5 mg/mL), 1 mM NADPH, and 0.2% BSA. […] Concentrations in beagle dog microsomal incubations were 0, 0.125, 0.25, 0.5, 1, 2, 4, 8, 16, and 32 μM. […] All samples were prepared in triplicate. The concentration of 6-HMT was quantified using LC-MS/MS.
Competitive inhibition and time-dependent inhibition assays: The production of 6-HMT without inhibitors was set as 100%.

For `C=C(C)[C@@H]1CCC(C)=C[C@H]1c1c(O)cc(CCCCC)cc1O` [CBD, Cannabidiol], the “[I]h (estimated free concentration in liver)” value ([1]; human, CBD dose 2000 mg) is listed as 3.55 µM, the “[I]h, concentration adopted for human” value ([1]; oral administration of 2000 mg CBD) is listed as 3.55 µM and the IC50 at 30 min ([2]; human, IC50, inhibition of MT 6-hydroxylation, hepatic microsomes of other species (not beagle)) is listed as 13.5 to 36.5 µM. It also gave an IC50 at 30 min ([2]; IC50, inhibition of MT 6-hydroxylation, RLM, MT 1 μM) of 13.5 ± 1.15 µM, an IC50 at 30 min ([2]; IC50, rat, as listed in Table 6 for static DDI model) of 9.51 µM and an IC50 shift at 30 min [3] of 1.27.
